Data as given in patent publication US20240246964A1 (Arbutus Biopharma Corporation, priority 2021, published 2024).

Legend:
[1] = biological target: PD-L1 His protein / PD-1 Fc protein (Homo sapiens (Human), UniProt Q9NZQ7); experiment: HTRF Assay (PD-1/PD-L1 interaction); assay type: binding; conditions: PD-L1 His 6 nM, PD-1 Fc 6 nM
human PD-L1 = human PD-L1 (Homo sapiens (Human), UniProt Q9NZQ7); experiment: T cell activation luciferase reporter cell culture system (T Cell Activation Assay); assay type: cell-based; conditions: luciferase reporter assay; PD-L1 aAPC/CHO-K1 cells with PD-1 effector Jurkat T cells
human PD-L1, sequence (Q9NZQ7 19-290): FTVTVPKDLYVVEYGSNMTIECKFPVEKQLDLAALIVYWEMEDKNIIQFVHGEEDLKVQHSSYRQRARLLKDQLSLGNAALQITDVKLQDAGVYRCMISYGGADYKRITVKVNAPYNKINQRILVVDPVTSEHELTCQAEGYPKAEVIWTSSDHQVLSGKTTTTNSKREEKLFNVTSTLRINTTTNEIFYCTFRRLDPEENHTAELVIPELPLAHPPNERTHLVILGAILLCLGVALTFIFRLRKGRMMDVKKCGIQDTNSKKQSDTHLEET

PD-L1 His protein / PD-1 Fc protein, sequence (Q9NZQ7 19-238): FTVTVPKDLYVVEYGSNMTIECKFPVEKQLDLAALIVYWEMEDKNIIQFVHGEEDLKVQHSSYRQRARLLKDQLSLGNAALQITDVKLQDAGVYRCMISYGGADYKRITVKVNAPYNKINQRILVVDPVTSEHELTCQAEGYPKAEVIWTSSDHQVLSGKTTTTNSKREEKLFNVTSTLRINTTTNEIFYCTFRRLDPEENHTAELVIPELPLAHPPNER

SMILES | IC50 [1] | EC50 (human PD-L1)
COc1cc(-c2ccnc(-c3cccc(-c4ccc(CNC5CCN(C(C)=O)CC5)c(OC)n4)c3Cl)c2Cl)ccc1CNC1CCN(C(C)=O)CC1 [Compound 621, 1-(4-(((6-(3-(4-(4-(((1-Acetylpiperidin-4-yl)amino)methyl)-3-methoxyphenyl)-3-chloropyridin-2-yl)-2-chlorophenyl)-2-methoxypyridin-3-yl)methyl)amino)piperidin-1-yl)ethan-1-one] | 1.54 nM | 303 nM
COc1nc(-c2cccc(-c3ccnc(-c4ccc(CNC5CCN(C(C)=O)CC5)c(OC)n4)c3Cl)c2Cl)ccc1CNC1CCN(C(C)=O)CC1 [Compound 627, 1-(4-(((6-(3-(5′-(((1-Acetylpiperidin-4-yl)amino)methyl)-3-chloro-6′-methoxy-[2,2′-bipyridin]-4-yl)-2-chlorophenyl)-2-methoxypyridin-3-yl)methyl)amino)piperidin-1-yl)ethan-1-one] | 1.96 nM | 43.4 nM
COc1nc(-c2cccc(-c3ccnc(-c4ccc(CN5CC6(CNC(=O)C6)C5)c(OC)n4)c3Cl)c2Cl)ccc1CN1CC2(CNC(=O)C2)C1 [Compound 628, 2-((3′-Chloro-4′-(2-chloro-3-(6-methoxy-5-((7-oxo-2,6-diazaspiro[3.4]octan-2-yl)methyl)pyridin-2-yl)phenyl)-6-methoxy-[2,2′-bipyridin]-5-yl)methyl)-2,6-diazaspiro[3.4]octan-7-one] | 0.28 nM | 27.1 nM
COc1nc(-c2cccc(-c3ccnc(-c4ccc(CNC5CCOCC5)c(OC)n4)c3Cl)c2Cl)ccc1CNC1CCOCC1 [Compound 629, N-((6-(2-Chloro-3-(3-chloro-6′-methoxy-5′-(((tetrahydro-2H-pyran-4-yl)amino)methyl)-[2,2′-bipyridin]-4-yl)phenyl)-2-methoxypyridin-3-yl)methyl)tetrahydro-2H-pyran-4-amine] | 0.66 nM | 114 nM
COc1nc(-c2cccc(-c3ccnc(-c4ccc(CNC[C@@H]5CCC(=O)N5)c(OC)n4)c3Cl)c2Cl)ccc1CNC[C@@H]1CCC(=O)N1 [Compound 630, (S)-5-((((6-(2-Chloro-3-(3-chloro-6′-methoxy-5′-(((((S)-5-oxopyrrolidin-2-yl)methyl)amino)methyl)-[2,2′-bipyridin]-4-yl)phenyl)-2-methoxypyridin-3-yl)methyl)amino)methyl)pyrrolidin-2-one] | 0.17 nM | 49.6 nM
COc1cc(-c2nccc(-c3cccc(-c4ccc5c(CN(C)C6CCOCC6)cn(C)c5n4)c3Cl)c2Cl)ccc1CNC1CCOCC1 [Compound 635, N-((6-(2-Chloro-3-(3-chloro-2-(3-methoxy-4-(((tetrahydro-2H-pyran-4-yl)amino)methyl)phenyl)pyridin-4-yl)phenyl)-1-methyl-1H-pyrrolo[2,3-b]pyridin-3-yl)methyl)-N-methyltetrahydro-2H-pyran-4-amine] | 0.19 nM | 237 nM
COc1nc(-c2cccc(-c3cncc(-c4ccc(CNC5CCN(C(C)=O)CC5)c(OC)n4)c3Cl)c2Cl)ccc1CNC1CCN(C(C)=O)CC1 [Compound 639, 1-(4-(((6-(3-(5-(((1-acetylpiperidin-4-yl)amino)methyl)-4′-chloro-6-methoxy-[2,3′-bipyridin]-5′-yl)-2-chlorophenyl)-2-methoxypyridin-3-yl)methyl)amino)piperidin-1-yl)ethan-1-one] | 0.19 nM | 23 nM
COc1nc(-c2cccc(-c3cncc(-c4ccc(CN5CC6(CNC(=O)C6)C5)c(OC)n4)c3Cl)c2Cl)ccc1CN1CC2(CNC(=O)C2)C1 [Compound 640, 2-((4′-Chloro-5′-(2-chloro-3-(6-methoxy-5-((7-oxo-2,6-diazaspiro[3.4]octan-2-yl)methyl)pyridin-2-yl)phenyl)-6-methoxy-[2,3′-bipyridin]-5-yl)methyl)-2,6-diazaspiro[3.4]octan-7-one] | 0.22 nM | 26.2 nM
